Earlier results on 1 compound are cited in article PMC13335693, “Discovery of a Potent Fluorescence Polarization Probe for Identifying USP1 Allosteric Inhibitors” (Advanced Science, 2026).

The conditions of this data set: stated for compound 4 as known drawback; no reference given.

Regarding `Cc1cnc(-c2ccccc2C(C)C)nc1NCc1ccc(-n2ccnn2)cc1` [ML323], the “half-life in mouse liver microsomes (MLM)” value is 15 min.
